Counter-ions that a name gives are not always drawn.
The compounds below were run against human cloned 5-HT6 receptors (Homo sapiens, UniProt P50406).
Sequence of human cloned 5-HT6 receptors (P50406 whole entry): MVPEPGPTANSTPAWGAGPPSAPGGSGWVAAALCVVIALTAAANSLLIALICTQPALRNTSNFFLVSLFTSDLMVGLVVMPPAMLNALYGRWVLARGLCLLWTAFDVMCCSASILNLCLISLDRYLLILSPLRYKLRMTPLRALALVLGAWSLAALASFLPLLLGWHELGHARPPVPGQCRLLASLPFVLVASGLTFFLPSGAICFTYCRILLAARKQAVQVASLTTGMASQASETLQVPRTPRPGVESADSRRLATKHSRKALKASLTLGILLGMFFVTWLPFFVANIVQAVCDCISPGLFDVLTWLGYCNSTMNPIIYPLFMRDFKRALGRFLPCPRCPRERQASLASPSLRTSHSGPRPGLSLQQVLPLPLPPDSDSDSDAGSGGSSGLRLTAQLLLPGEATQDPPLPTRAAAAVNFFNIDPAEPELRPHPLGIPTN

| Ki [µM] | SMILES |
| --- | --- |
| 0.0038 | CN1CCC(c2n[nH]c3ccc(S(=O)(=O)c4cccc5ccccc45)cc23)CC1 [Example 4, 3-(1-Methylpiperidin-4-yl)-5-(1-naphthylsulfonyl)-1H-indazole hydrochloride] |
| 0.055 | CN1CCC(c2n[nH]c3ccc(S(=O)(=O)c4ccccc4)cc23)CC1 [Example 5, 3-(1-methylpiperidin-4-yl)-5-(phenylsulfonyl)-1H-indazole] |
| 0.093 | CN1CCC(c2n[nH]c3ccc(S(=O)(=O)c4cccc(F)c4)cc23)CC1 [Example 6, 5-[(3-fluorophenyl)sulfonyl]-3-(1-methylpiperidin-4-yl)-1H-indazole] |
| 0.019 | CN1CCC(c2n[nH]c3ccc(S(=O)(=O)c4cccc(Cl)c4)cc23)CC1 [Example 7, 5-[(3-chlorophenyl)sulfonyl]-3-(1-methylpiperidin-4-yl)-1H-indazole] |
| 0.066 | CN1CCC(c2n[nH]c3ccc(S(=O)(=O)c4ccc(F)cc4)cc23)CC1 [Example 8, 5-[(4-fluorophenyl)sulfonyl]-3-(1-methylpiperidin-4-yl)-1H-indazole] |
| 0.05 | Cc1cccc(S(=O)(=O)c2ccc3[nH]nc(C4CCN(C)CC4)c3c2)c1 [Example 9, 5-[(3-methylphenyl)sulfonyl]-3-(1-methylpiperidin-4-yl)-1H-indazole] |
| 0.046 | CN1CCC(c2n[nH]c3ccc(S(=O)(=O)c4ccc(C(F)(F)F)cc4)cc23)CC1 [Example 10, 3-(1-methylpiperidin-4-yl)-5-{[4-(trifluoromethyl)phenyl]sulfonyl}-1H-indazole] |
| 0.048 | CN1CCC(c2n[nH]c3ccc(S(=O)(=O)c4ccc(OC(F)(F)F)cc4)cc23)CC1 [Example 11, 3-(1-methylpiperidin-4-yl)-5-{[4-(trifluoromethoxy)phenyl]sulfonyl}-1H-indazole] |
| 0.014 | CC(C)c1ccc(S(=O)(=O)c2ccc3[nH]nc(C4CCN(C)CC4)c3c2)cc1 [Example 12, 5-[4-(isopropylphenyl)sulfonyl]-3-(1-methylpiperidin-4-yl)-1H-indazole] |
| 0.0096 | CN1CCC(c2n[nH]c3ccc(S(=O)(=O)c4ccc5ccccc5c4)cc23)CC1 [Example 13, 3-(1-methylpiperidin-4-yl)-5-(2-naphthylsulfonyl)-1H-indazole] |
| 0.123 | COc1ccc(S(=O)(=O)c2ccc3[nH]nc(C4CCN(C)CC4)c3c2)cc1 [Example 14] |
